From article PMC5218480 (PLoS ONE, 2017)

System: MV-4-11 cells
Test: Gene expression microarray analysis (Affymetrix PrimeView) and GSEA
Format: cell-based, human
Parameters: RFU PODN (11730768_x_at) / Fold change /veh PODN (11730768_x_at) / RFU LINC00158 (11744669_a_at) / Fold change /veh LINC00158 (11744669_a_at) / RFU DUSP10 (11751237_a_at) / Fold change /veh DUSP10 (11751237_a_at) / RFU ID3 (11757404_x_at) / Fold change /veh ID3 (11757404_x_at) / RFU PLEKHG5 (11737974_s_at) / Fold change /veh PLEKHG5 (11737974_s_at) / RFU LRRC4B (11730491_at) / Fold change /veh LRRC4B (11730491_at) / RFU GIMAP4 (11747438_a_at) / Fold change /veh GIMAP4 (11747438_a_at) / RFU KRT8 (11758183_x_at) / Fold change /veh KRT8 (11758183_x_at) / RFU CNN1 (11734310_a_at) / Fold change /veh CNN1 (11734310_a_at) / RFU VPS37D (11726825_at) / Fold change /veh VPS37D (11726825_at) / RFU C10orf10 (11716522_x_at) / Fold change /veh C10orf10 (11716522_x_at) / RFU KIR2DL2 /// KIR2DL4 /// KIR2DL5A /// KIR2DL5B /// KIR2DS1 /// KIR2DS2 /// KIR2DS3 /// KIR2DS4 /// KIR3DL3 /// KIR3DL3 /// KIR3DS1 (11738374_at) / Fold change /veh KIR2DL2 /// KIR2DL4 /// KIR2DL5A /// KIR2DL5B /// KIR2DS1 /// KIR2DS2 /// KIR2DS3 /// KIR2DS4 /// KIR3DL3 /// KIR3DL3 /// KIR3DS1 (11738374_at) / RFU C1QL1 (11718748_at) / Fold change /veh C1QL1 (11718748_at) / RFU TMPRSS4 (11747572_a_at) / Fold change /veh TMPRSS4 (11747572_a_at) / RFU HAMP (11756126_x_at) / Fold change /veh HAMP (11756126_x_at) / RFU RNFT2 (11725882_a_at) / Fold change /veh RNFT2 (11725882_a_at) / RFU NR4A2 (11747474_a_at) / Fold change /veh NR4A2 (11747474_a_at) / RFU ABCC12 (11746883_a_at) / Fold change /veh ABCC12 (11746883_a_at) / RFU TMEM136 (11760407_x_at) / Fold change /veh TMEM136 (11760407_x_at) / RFU CLDN22 /// WWC2 (11732394_at) / Fold change /veh CLDN22 /// WWC2 (11732394_at) / RFU HLA-DPB1 (11760878_x_at) / Fold change /veh HLA-DPB1 (11760878_x_at) / RFU SPINT1 (11716480_a_at) / Fold change /veh SPINT1 (11716480_a_at) / RFU GAP43 (11754022_s_at) / Fold change /veh GAP43 (11754022_s_at) / RFU A4GNT (11735810_at) / Fold change /veh A4GNT (11735810_at) / RFU PRB3 (11715151_x_at) / Fold change /veh PRB3 (11715151_x_at) / RFU TUBB4B (11761932_at) / Fold change /veh TUBB4B (11761932_at) / RFU CAPN14 (11732068_a_at) / Fold change /veh CAPN14 (11732068_a_at) / RFU TMCC2 (11721928_a_at) / Fold change /veh TMCC2 (11721928_a_at) / RFU IRGQ (11745062_a_at) / Fold change /veh IRGQ (11745062_a_at) / RFU FAM174B (11720279_a_at) / Fold change /veh FAM174B (11720279_a_at) / RFU TMPRSS4 (11748680_a_at) / Fold change /veh TMPRSS4 (11748680_a_at) / RFU FAM212B (11763350_a_at) / Fold change /veh FAM212B (11763350_a_at) / RFU PLEKHG5 (11743358_a_at) / Fold change /veh PLEKHG5 (11743358_a_at) / RFU ZSCAN30 (11745921_a_at) / Fold change /veh ZSCAN30 (11745921_a_at) / RFU CMKLR1 (11741424_a_at) / Fold change /veh CMKLR1 (11741424_a_at) / RFU LOC101060620 /// MAPK8IP1 (11723275_at) / Fold change /veh LOC101060620 /// MAPK8IP1 (11723275_at) / RFU SPTSSB (11747773_x_at) / Fold change /veh SPTSSB (11747773_x_at) / RFU PRSS12 (11739890_at) / Fold change /veh PRSS12 (11739890_at) / RFU BIN1 (11741810_x_at) / Fold change /veh BIN1 (11741810_x_at) / RFU WNT11 (11732464_a_at) / Fold change /veh WNT11 (11732464_a_at) / RFU C10orf10 (11716521_a_at) / Fold change /veh C10orf10 (11716521_a_at) / RFU C5orf56 (11738089_at) / Fold change /veh C5orf56 (11738089_at) / RFU CYB561 (11721691_x_at) / Fold change /veh CYB561 (11721691_x_at) / RFU ANKRD19P (11752326_a_at) / Fold change /veh ANKRD19P (11752326_a_at) / RFU OR2T12 /// OR2T33 /// OR2T8 (11738714_s_at) / Fold change /veh OR2T12 /// OR2T33 /// OR2T8 (11738714_s_at) / RFU VCAN (11748164_a_at) / Fold change /veh VCAN (11748164_a_at) / RFU JSRP1 (11732532_at) / Fold change /veh JSRP1 (11732532_at) / RFU KRTAP10-11 (11738290_x_at) / Fold change /veh KRTAP10-11 (11738290_x_at) / RFU MYO3A (11730013_a_at) / Fold change /veh MYO3A (11730013_a_at) / RFU EBF3 (11725865_a_at) / Fold change /veh EBF3 (11725865_a_at) / RFU CAMK2N1 (11719241_x_at) / Fold change /veh CAMK2N1 (11719241_x_at) / RFU C5orf56 (11738088_a_at) / Fold change /veh C5orf56 (11738088_a_at) / RFU OLFML3 (11715873_a_at) / Fold change /veh OLFML3 (11715873_a_at) / RFU LOC100653217 /// NTM (11731650_a_at) / Fold change /veh LOC100653217 /// NTM (11731650_a_at) / RFU MAPK11 (11762145_a_at) / Fold change /veh MAPK11 (11762145_a_at) / RFU FIZ1 (11724087_x_at) / Fold change /veh FIZ1 (11724087_x_at) / RFU OASL (11726364_x_at) / Fold change /veh OASL (11726364_x_at) / RFU SOX15 (11748057_x_at) / Fold change /veh SOX15 (11748057_x_at) / RFU CD79A (11719716_a_at) / Fold change /veh CD79A (11719716_a_at) / RFU HIST1H1D (11736915_at) / Fold change /veh HIST1H1D (11736915_at) / RFU CASKIN2 (11723855_a_at) / Fold change /veh CASKIN2 (11723855_a_at) / RFU LOC730098 (11760151_x_at) / Fold change /veh LOC730098 (11760151_x_at) / RFU OR4N2 (11742367_at) / Fold change /veh OR4N2 (11742367_at) / RFU PRRT2 (11749266_a_at) / Fold change /veh PRRT2 (11749266_a_at) / RFU SNX32 (11753110_a_at) / Fold change /veh SNX32 (11753110_a_at) / RFU CDHR5 (11726645_a_at) / Fold change /veh CDHR5 (11726645_a_at) / RFU RCAN1 (11760418_a_at) / Fold change /veh RCAN1 (11760418_a_at) / RFU FAM167A (11723789_a_at) / Fold change /veh FAM167A (11723789_a_at) / RFU FAM26E (11764081_at) / Fold change /veh FAM26E (11764081_at) / RFU ISYNA1 (11749810_s_at) / Fold change /veh ISYNA1 (11749810_s_at) / RFU ACY1 (11761880_at) / Fold change /veh ACY1 (11761880_at) / RFU 11764098_at / Fold change /veh 11764098_at / RFU SAMD14 (11745864_x_at) / Fold change /veh SAMD14 (11745864_x_at) / RFU NPB (11741838_a_at) / Fold change /veh NPB (11741838_a_at) / RFU TMPRSS6 (11731388_a_at) / Fold change /veh TMPRSS6 (11731388_a_at) / RFU KRTAP10-2 (11738614_at) / Fold change /veh KRTAP10-2 (11738614_at) / RFU ARHGAP8 /// PRR5-ARHGAP8 (11727945_x_at) / Fold change /veh ARHGAP8 /// PRR5-ARHGAP8 (11727945_x_at) / RFU KRTAP5-7 /// NADSYN1 (11734609_at) / Fold change /veh KRTAP5-7 /// NADSYN1 (11734609_at) / RFU RASL12 (11751679_a_at) / Fold change /veh RASL12 (11751679_a_at) / RFU CDKN2B (11736163_a_at) / Fold change /veh CDKN2B (11736163_a_at) / RFU PRF1 (11729649_at) / Fold change /veh PRF1 (11729649_at) / RFU, ZNF638 /// ZNF638-IT1 / Fold change vs veh, ZNF638 /// ZNF638-IT1 / RFU, PANK3 / Fold change vs veh, PANK3 / RFU, SH3YL1 / Fold change vs veh, SH3YL1 / RFU, ZEB2 / Fold change vs veh, ZEB2 / RFU, NRIP1 / Fold change vs veh, NRIP1 / RFU, PTTG1IP / Fold change vs veh, PTTG1IP / RFU, CAPN2 / Fold change vs veh, CAPN2 / RFU, MED14 / Fold change vs veh, MED14 / RFU, SNORA58 / Fold change vs veh, SNORA58 / RFU, C1orf63 / Fold change vs veh, C1orf63 / RFU, LRRFIP1 / Fold change vs veh, LRRFIP1 / RFU, NDUFAF7 / Fold change vs veh, NDUFAF7 / RFU, SLC12A2 / Fold change vs veh, SLC12A2 / RFU, IBTK / Fold change vs veh, IBTK / RFU, ESF1 / Fold change vs veh, ESF1 / Fold change vs veh, TMEM50B / RFU, TAOK1 / Fold change vs veh, TAOK1 / RFU, ACBD3 / Fold change vs veh, ACBD3 / RFU, TMA16 / Fold change vs veh, TMA16 / RFU, RWDD3 / Fold change vs veh, RWDD3 / RFU, BCAT1 / Fold change vs veh, BCAT1 / RFU, EDEM3 / Fold change vs veh, EDEM3 / RFU, TMEM33 / Fold change vs veh, TMEM33 / RFU, WDR75 / Fold change vs veh, WDR75 / RFU, AHCTF1 / Fold change vs veh, AHCTF1 / RFU, TFRC / Fold change vs veh, TFRC / RFU, ZDHHC17 / Fold change vs veh, ZDHHC17 / RFU, NOM1 / Fold change vs veh, NOM1 / RFU, ARL8B / Fold change vs veh, ARL8B / RFU, ZBTB11 / Fold change vs veh, ZBTB11 / RFU, TAMM41 / Fold change vs veh, TAMM41 / RFU, KIAA1704 /// LOC100996395 / Fold change vs veh, KIAA1704 /// LOC100996395 / RFU, ING1 / Fold change vs veh, ING1 / RFU, TRMT61B / Fold change vs veh, TRMT61B / RFU, FUBP3 / Fold change vs veh, FUBP3 / RFU, TP53 / Fold change vs veh, TP53 / RFU, TNKS2 / Fold change vs veh, TNKS2 / RFU, ZFP14 / Fold change vs veh, ZFP14 / RFU, ACTR2 / Fold change vs veh, ACTR2 / RFU, PPP3R1 / Fold change vs veh, PPP3R1 / RFU, PIK3R1 / Fold change vs veh, PIK3R1 / RFU, HNRNPA1 / Fold change vs veh, HNRNPA1 / RFU, RNF170 / Fold change vs veh, RNF170 / RFU, ZNF28 / Fold change vs veh, ZNF28 / RFU, RNGTT / Fold change vs veh, RNGTT / RFU, OGT / Fold change vs veh, OGT / RFU, BRD1 / Fold change vs veh, BRD1 / RFU, MARS / Fold change vs veh, MARS / RFU, ZNF655 / Fold change vs veh, ZNF655 / RFU, FAHD1 / Fold change vs veh, FAHD1 / RFU, BDP1 / Fold change vs veh, BDP1 / RFU, LRRCC1 / Fold change vs veh, LRRCC1 / RFU, ARID1A / Fold change vs veh, ARID1A / RFU, ZNF146 / Fold change vs veh, ZNF146 / RFU, ZNF330 / Fold change vs veh, ZNF330 / RFU, GPN3 / Fold change vs veh, GPN3 / RFU, C9orf123 / Fold change vs veh, C9orf123 / RFU, N4BP2L2 / Fold change vs veh, N4BP2L2 / RFU, ARFIP1 / Fold change vs veh, ARFIP1 / RFU, FAM179B / Fold change vs veh, FAM179B / RFU, BCL10 / Fold change vs veh, BCL10 / RFU, UHRF1BP1L / Fold change vs veh, UHRF1BP1L / RFU, BET1 / Fold change vs veh, BET1 / RFU, CNOT2 / Fold change vs veh, CNOT2 / RFU, ZNF268 / Fold change vs veh, ZNF268 / Fold change vs veh, ZNF507 / RFU, DGCR2 / Fold change vs veh, DGCR2 / RFU, WDSUB1 / Fold change vs veh, WDSUB1 / Fold change vs veh, HSP90B1 /// MIR3652 / RFU, ADSS / Fold change vs veh, ADSS / RFU, GK / Fold change vs veh, GK / RFU, ZNF148 / Fold change vs veh, ZNF148 / RFU, TAF9 / Fold change vs veh, TAF9 / RFU, SLC1A5 / Fold change vs veh, SLC1A5 / RFU, SLMO2 / Fold change vs veh, SLMO2 / RFU, ABCC4 / Fold change vs veh, ABCC4 / RFU, LOC101060439 /// RAP1B / Fold change vs veh, LOC101060439 /// RAP1B / RFU, RFX7 / Fold change vs veh, RFX7 / RFU, GTPBP10 / Fold change vs veh, GTPBP10 / RFU, CNEP1R1 / Fold change vs veh, CNEP1R1 / RFU, BIVM-ERCC5 /// ERCC5 / Fold change vs veh, BIVM-ERCC5 /// ERCC5 / RFU, ILF3 / Fold change vs veh, ILF3 / RFU 11762660_at / Fold change /veh 11762660_at / RFU VCAN (11757783_s_at) / Fold change /veh VCAN (11757783_s_at) / RFU DDX43 (11728927_at) / Fold change /veh DDX43 (11728927_at) / RFU KRT8 (11758188_x_at) / Fold change /veh KRT8 (11758188_x_at) / RFU NKD1 (11759106_at) / Fold change /veh NKD1 (11759106_at) / RFU SRD5A1 (11742802_a_at) / Fold change /veh SRD5A1 (11742802_a_at) / RFU TPSAB1 /// TPSB2 (11721975_s_at) / Fold change /veh TPSAB1 /// TPSB2 (11721975_s_at) / RFU GSTM3 (11746129_a_at) / Fold change /veh GSTM3 (11746129_a_at) / RFU IL23R (11737362_x_at) / Fold change /veh IL23R (11737362_x_at) / RFU TMEM51 (11727254_a_at) / Fold change /veh TMEM51 (11727254_a_at) / RFU PIWIL2 (11732686_x_at) / Fold change /veh PIWIL2 (11732686_x_at) / RFU ORM1 (11744905_x_at) / Fold change /veh ORM1 (11744905_x_at) / RFU CCDC152 (11743942_at) / Fold change /veh CCDC152 (11743942_at) / RFU ECM1 (11717891_a_at) / Fold change /veh ECM1 (11717891_a_at) / RFU IL23R (11748794_a_at) / Fold change /veh IL23R (11748794_a_at) / RFU TNFAIP8L3 (11732012_x_at) / Fold change /veh TNFAIP8L3 (11732012_x_at) / RFU MBOAT4 (11741988_at) / Fold change /veh MBOAT4 (11741988_at) / RFU 11764193_at / Fold change /veh 11764193_at / RFU TMEM53 (11763286_at) / Fold change /veh TMEM53 (11763286_at) / RFU MAGEB2 (11727129_at) / Fold change /veh MAGEB2 (11727129_at) / RFU TMEM200A (11744735_a_at) / Fold change /veh TMEM200A (11744735_a_at) / RFU CCDC152 (11751479_a_at) / Fold change /veh CCDC152 (11751479_a_at) / RFU FAM211A (11726209_a_at) / Fold change /veh FAM211A (11726209_a_at) / RFU RGS16 (11746705_a_at) / Fold change /veh RGS16 (11746705_a_at) / RFU VCAN (11755009_s_at) / Fold change /veh VCAN (11755009_s_at) / RFU RHOB (11743442_s_at) / Fold change /veh RHOB (11743442_s_at) / RFU RGS16 (11720943_a_at) / Fold change /veh RGS16 (11720943_a_at) / RFU RGS16 (11720944_at) / Fold change /veh RGS16 (11720944_at) / RFU, VPS4B / Fold change vs veh, VPS4B / RFU, CREB1 / Fold change vs veh, CREB1 / RFU, DNAJC13 / Fold change vs veh, DNAJC13 / RFU, GNAQ / Fold change vs veh, GNAQ / RFU, CDK5R1 / Fold change vs veh, CDK5R1 / RFU, ZRANB3 / Fold change vs veh, ZRANB3 / RFU, CUL4A / Fold change vs veh, CUL4A / RFU, CCNY / Fold change vs veh, CCNY / RFU, UFL1 / Fold change vs veh, UFL1 / RFU, COG3 / Fold change vs veh, COG3 / RFU, DIAPH2 / Fold change vs veh, DIAPH2 / RFU, SKA2 / Fold change vs veh, SKA2 / RFU, AFF3 / Fold change vs veh, AFF3 / RFU, LMF1 / Fold change vs veh, LMF1 / RFU, IPO11 / Fold change vs veh, IPO11 / RFU, DFFB / Fold change vs veh, DFFB / RFU, FOXP1 / Fold change vs veh, FOXP1 / RFU, CARD8 / Fold change vs veh, CARD8 / RFU, STRN3 / Fold change vs veh, STRN3 / RFU, ADK / Fold change vs veh, ADK / RFU, RASSF2 / Fold change vs veh, RASSF2 / RFU, WIPF1 / Fold change vs veh, WIPF1 / RFU, LARP1B / Fold change vs veh, LARP1B / RFU, RASA1 / Fold change vs veh, RASA1 / RFU, RB1 / Fold change vs veh, RB1 / RFU, PPFIA1 / Fold change vs veh, PPFIA1 / RFU, MAT2A / Fold change vs veh, MAT2A / RFU, CCT5 / Fold change vs veh, CCT5 / RFU, WDR92 / Fold change vs veh, WDR92 / RFU, CUX1 / Fold change vs veh, CUX1 / RFU, TTC7A / Fold change vs veh, TTC7A / RFU, TMEM135 / Fold change vs veh, TMEM135 / RFU, DEPTOR / Fold change vs veh, DEPTOR / RFU, CPM / Fold change vs veh, CPM / RFU, DNAJB6 / Fold change vs veh, DNAJB6 / RFU, CACNA2D3 / Fold change vs veh, CACNA2D3 / RFU, DTX4 / Fold change vs veh, DTX4 / RFU, TFCP2 / Fold change vs veh, TFCP2 / RFU, GMCL1 /// GMCL1P1 / Fold change vs veh, GMCL1 /// GMCL1P1 / RFU, AEBP2 / Fold change vs veh, AEBP2 / RFU, SNHG1 /// SNORD22 /// SNORD25 /// SNORD26 /// SNORD27 /// SNORD28 /// SNORD29 /// SNORD31 / Fold change vs veh, SNHG1 /// SNORD22 /// SNORD25 /// SNORD26 /// SNORD27 /// SNORD28 /// SNORD29 /// SNORD31 / Fold change (Aza/veh), C12orf56 (ProbeSet 11735607_a_at) / Fold change (ACY-1035/veh), C12orf56 (ProbeSet 11735607_a_at) / Fold change (Aza/veh), FGFR1OP (ProbeSet 11751329_s_at) / Fold change (ACY-1035/veh), FGFR1OP (ProbeSet 11751329_s_at) / Fold change (Aza/veh), VPS36 (ProbeSet 11739960_a_at) / Fold change (ACY-1035/veh), VPS36 (ProbeSet 11739960_a_at) / RFU SYPL1 (11715823_x_at) / Fold change /veh SYPL1 (11715823_x_at) / RFU IGFBP7 (11715501_s_at) / Fold change /veh IGFBP7 (11715501_s_at) / RFU REEP3 (11722064_at) / Fold change /veh REEP3 (11722064_at) / RFU IGLL1 (11728026_x_at) / Fold change /veh IGLL1 (11728026_x_at): dose or concentration left out as unconfirmed
Details: MV-4-11 cells, 48 hours

SMILES: Nc1ncn([C@@H]2O[C@H](CO)[C@@H](O)[C@H]2O)c(=O)n1 [azacitidine]
- Fold change /veh LOC730098 (11760151_x_at): 1.03
